From paper PMC11862990, “Utility of 6-aza-2-thiothymine in the synthesis of novel [1,2,4]triazolo[4,3-b][1,2,4]triazin-7-one derivatives: synthesis, structure elucidation, molecular docking and in vitro anti-lung cancer activity” (RSC Advances, 2025) come the findings set out here.

Several values for one entry are separate records, joined by “and”; a condition that tells them apart may be missing. Identical values can stand only once. Like-named read-outs stand apart in the source and are kept apart here.

For one data set, the system named is PC3 (prostate cell line). Briefly: MTT cytotoxicity assay, PC3. To be noted: Homo sapiens, read-out: (%) Mortality PC3. In kind it is cell-based. On the technique in general: Tetrazolium assays rely on reduction of a dye to a coloured formazan, in cell work by metabolically active cells.
The test system of data set [1] is BJ1 (normal skin fibroblast). The method, then:
Using specific human cancer cell lines, the anti-proliferative effectiveness of compounds 7a–j was evaluated in an in vitro assay. The anti-cancer activity of these compounds (7a–j) on various cancer cell lines, including PC3 (Prostate cell line), A549 (Lung carcinoma), PACA2 (Pancreatic cancer cell line) and BJ1 (normal skin fibroblast), was investigated in this study using the 3-(4,5-dimethylthiazol-2-yl)-2,5-diphenyltetrazolium bromide (MTT) test.
In the initial screening trial, a single dosage concentration of 100 μg ml^−1 was applied for 48 hours. The cytotoxicity of the treated cells was determined by calculating the cell death percentage (% mortality) as a percentage of untreated cells (Table 2).
Cell viability was tested using the MTT assay, 3-(4,5-dimethylthiazol-2-yl)-2,5-diphenyl-tetrazolium bromide (Bio Basic Canada Inc. Toronto, Canada).[26] Under class II biosafety regulations, the procedures were carried out in a sterile laminar air flow cabinet (Baker, SG403INT; Sanford, ME, USA). Cell lines were obtained from the American type culture collection (ATCC) as a gift from Dr Stig Linder, Karonisca Institute, Sweden. All incubations were performed at 37 °C in a 5% CO2 incubator with a 95% humidified environment (Sheldon, TC2323; Cornelius, OR, USA). 96-well micro titer polypropylene plates were seeded with cells at a density of 10^4 cells per well in complete DMEM media, and the cells were allowed to adhere for 24 hours. After the media was aspirated, the tested compounds were added to the cells in a single dose of 100 μg ml^−1 in DMSO. Each well received 40 μl of MTT salt ([…]) following a 48 hour incubation period. 200 μl of 10% sodium dodecyl sulfate (SDS) was added to each well after the reaction ended, and any formazan crystals that could have been produced were dissolved by two hours of incubator heating to 37 °C. The amount of formazan product was measured at 595 nm using a microplate reader (Bio-Rad Laboratories, model 3350, California, USA) with a reference wavelength of 690 nm, serving as a backdrop. Rather than the drugs under investigation, the medium was applied to the untreated cells (negative control). The examined compounds were dissolved in dimethylsulfoxide (DMSO), and the final concentration in the cells was less than 0.2%. For each compound and the control, the solvent concentration was the same.

In data set [2] the test system is p53 gene expression in lung cancer cell lines. Description: qRT-PCR gene expression, p53. In kind it is cell-based, human. The note with it: treated lung cancer cell line vs negative control; order 7g, Dox, 7a. The method, then:
The RNeasy Mini Kit (Qiagen, Hilden, Germany), augmented with a DNaseI (Qiagen) digestion step, was employed to extract total RNA from lung cancer cell lines following the manufacturer's procedure. The isolated total RNA was treated with one unit of RQ1 RNAse-free DNAse (Invitrogen, Germany) to eliminate DNA remnants, re-suspended in DEPC-treated water, and quantified photometrically at 260 nm. The purity of total RNA was evaluated using the 260/280 nm ratio, which ranged from 1.8 to 2.1.[27]
Furthermore, integrity was confirmed using ethidium bromide-stained examination of 28S and 18S bands via formaldehyde-containing agarose gel electrophoresis. Aliquots were utilized immediately for reverse transcription (RT); otherwise, they were preserved at −80 °C.
The poly(A) + RNA extracted from the lung cancer cell lines was reverse transcribed into the cDNA in a total amount of 20 μl utilizing the Revert Aid TM First Strand cDNA Synthesis Kit (Fermentas, Germany). A total of 5 μg of RNA was utilized with a master mix. The master mix comprised 50 mM MgCl2, 10× RT buffer (50 mM KCl; 10 mM Tris–HCl; pH 8.3), 10 mM of each dNTP, 50 μM oligo-dT primer, 20 IU ribonuclease inhibitor (50 kDa recombinant enzyme to suppress RNase activity), and 50 IU MuLV reverse transcriptase. Each sample mixture was centrifuged for 30 seconds at 1000 g and thereafter transferred to the thermocycler. The RT reaction was conducted at 25 °C for 10 minutes, subsequently at 42 °C for 1 hour, and concluded with a denaturation phase at 99 °C for 5 minutes. Subsequently, the reaction tubes containing RT-prepared samples were rapidly chilled in an ice chamber prior to cDNA amplification via the quantitative real-time polymerase chain reaction (qRT-PCR).
The cDNA copy number of lung cancer cell lines was determined using the StepOne™ Real-Time PCR System from Applied Biosystems (Thermo Fisher Scientific, Waltham, MA, USA). […]
The reaction protocol was divided into three stages. […] The relative quantification of the target gene to the reference gene was assessed using the 2^−ΔΔCT method.[29–31]

Protocol for PC3 (prostate cell line): Using specific human cancer cell lines, the anti-proliferative effectiveness of compounds 7a–j was evaluated in an in vitro assay. The anti-cancer activity of these compounds (7a–j) on various cancer cell lines, including PC3 (Prostate cell line), A549 (Lung carcinoma), PACA2 (Pancreatic cancer cell line) and BJ1 (normal skin fibroblast), was investigated in this study using the 3-(4,5-dimethylthiazol-2-yl)-2,5-diphenyltetrazolium bromide (MTT) test. Doxorubicin (Dox) was the standard medication used as a positive control.
All incubations were performed at 37 °C in a 5% CO2 incubator with a 95% humidified environment (Sheldon, TC2323; Cornelius, OR, USA). 96-well micro titer polypropylene plates were seeded with cells at a density of 10^4 cells per well in complete DMEM media, and the cells were allowed to adhere for 24 hours. After the media was aspirated, the tested compounds were added to the cells in a single dose of 100 μg ml^−1 in DMSO. Each well received 40 μl of MTT salt (2.5 g ml^−1) following a 48 hour incubation period. 200 μl of 10% sodium dodecyl sulfate (SDS) was added to each well after the reaction ended, and any formazan crystals that could have been produced were dissolved by two hours of incubator heating to 37 °C. The amount of formazan product was measured at 595 nm using a microplate reader (Bio-Rad Laboratories, model 3350, California, USA) with a reference wavelength of 690 nm, serving as a backdrop. Rather than the drugs under investigation, the medium was applied to the untreated cells (negative control). The examined compounds were dissolved in dimethylsulfoxide (DMSO), and the final concentration in the cells was less than 0.2%. For each compound and the control, the solvent concentration was the same.

On to `Cc1nn2c(C)nn(-c3ccc([N+](=O)[O-])cc3)c2nc1=O` [Compound 7a, 3,6-Dimethyl-1-(4-nitrophenyl)-[1,2,4]triazolo[4,3-b][1,2,4]triazin-7(1H)-one], for which the cytotoxicity at 100 µg/mL with PC3 (prostate cell line) (100 μg ml^−1, 48 hours, MTT) was 28.2 ± 0.25%. Moreover, the “(%) Mortality BJ1 (cytotoxicity percentage on normal cells)” value in data set [1] (100 μg ml^−1, 48 hours, MTT) was 3.5% and 3.5 ± 1.16%. In addition, the “p53 (pro-apoptotic gene) expression level” value in data set [2] is recorded as “elevated”.

Turning to `COc1ccc(-c2nn(-c3ccccc3)c3nc(=O)c(C)nn23)cc1` [Compound 7g, 3-(4-Methoxyphenyl)-6-methyl-1-phenyl-[1,2,4]triazolo[4,3-b][1,2,4]triazin-7(1H)-one], in the data set with PC3 (prostate cell line) (100 μg ml^−1, 48 hours, MTT), the cytotoxicity at 100 µg/mL was 14.6 ± 0.92%. The “(%) Mortality BJ1 (cytotoxicity percentage on normal cells)” value in data set [1] (100 μg ml^−1, 48 hours, MTT) was 2.8% and 2.8 ± 0.71%. Further, the “p53 (pro-apoptotic gene) expression level” value in data set [2] is reported as “elevated”.

Regarding `COc1cccc2c1C(=O)c1c(O)c3c(c(O)c1C2=O)C[C@@](O)(C(=O)CO)C[C@@H]3O[C@H]1C[C@H](N)[C@H](O)[C@H](C)O1` [Dox, Doxorubicin, reference compound], in the data set on PC3 (prostate cell line) (48 h), the cytotoxicity at 100 µg/mL was 100%. Also, the “(%) Mortality BJ1 (cytotoxicity percentage on normal cells)” value in data set [1] (human, 48 h, 100 μg ml^−1) stood at 1.10 ± 0.52%. The “p53 (pro-apoptotic gene) expression level” value in data set [2] is recorded as “elevated”.
